Measurements published in patent US8846741B2, “N-substituted aminobenzocycloheptene, aminotetraline, aminoindane and phenalkylamine derivatives, pharmaceutical compositions containing them, and their use in therapy” (AbbVie Deutschland GmbH & Co. KG, priority 2011, dated 2014).

Assays:
[1] = target: human GlyT1c transporter (Homo sapiens (Human), UniProt P48067); assay: Radioligand binding assay using recombinant CHO cell membranes expressing human GlyT1; details: read-out: radioligand binding Kiapp
human GlyT1c transporter, sequence (P48067 whole entry): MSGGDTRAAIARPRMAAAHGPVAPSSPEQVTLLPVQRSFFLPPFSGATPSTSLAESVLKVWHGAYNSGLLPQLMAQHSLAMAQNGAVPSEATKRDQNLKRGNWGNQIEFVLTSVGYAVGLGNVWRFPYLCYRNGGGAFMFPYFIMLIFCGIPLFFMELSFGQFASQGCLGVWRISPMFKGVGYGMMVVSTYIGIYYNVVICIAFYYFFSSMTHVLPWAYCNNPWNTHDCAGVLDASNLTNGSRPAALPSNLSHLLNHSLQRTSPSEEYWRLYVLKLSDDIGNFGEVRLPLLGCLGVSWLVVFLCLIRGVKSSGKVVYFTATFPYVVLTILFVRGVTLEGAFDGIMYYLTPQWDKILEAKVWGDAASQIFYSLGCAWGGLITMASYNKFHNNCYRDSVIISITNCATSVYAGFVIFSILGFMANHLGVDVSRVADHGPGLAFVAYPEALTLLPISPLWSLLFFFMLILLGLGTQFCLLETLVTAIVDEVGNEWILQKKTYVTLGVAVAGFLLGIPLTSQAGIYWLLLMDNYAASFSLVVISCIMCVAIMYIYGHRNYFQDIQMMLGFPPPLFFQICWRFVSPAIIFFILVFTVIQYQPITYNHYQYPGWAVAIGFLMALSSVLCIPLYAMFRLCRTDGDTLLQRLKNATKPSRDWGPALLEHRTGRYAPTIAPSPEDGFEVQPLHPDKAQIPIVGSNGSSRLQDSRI
Protocol: 2. Radioligand Binding Assays Using Recombinant CHO Cell Membranes Expressing Human GlyT1:
Radioligand binding to human GlyT1c transporter-expressing membranes was determined as described in Mezler et al., Molecular Pharmacology 74:1705-1715, 2008.

[2] = target: MDR1 (P-gp) (Homo sapiens (Human), UniProt P08183); assay: Efflux ratio in MDR1-MDCK bidirectional transport; format: in vitro ADME; details: dog; MDR1-MDCK cell monolayers, 1 μM in HBSS-pH 7.4, 1 h incubation at 37 C
MDR1 (P-gp), sequence (P08183 whole entry, species assumed): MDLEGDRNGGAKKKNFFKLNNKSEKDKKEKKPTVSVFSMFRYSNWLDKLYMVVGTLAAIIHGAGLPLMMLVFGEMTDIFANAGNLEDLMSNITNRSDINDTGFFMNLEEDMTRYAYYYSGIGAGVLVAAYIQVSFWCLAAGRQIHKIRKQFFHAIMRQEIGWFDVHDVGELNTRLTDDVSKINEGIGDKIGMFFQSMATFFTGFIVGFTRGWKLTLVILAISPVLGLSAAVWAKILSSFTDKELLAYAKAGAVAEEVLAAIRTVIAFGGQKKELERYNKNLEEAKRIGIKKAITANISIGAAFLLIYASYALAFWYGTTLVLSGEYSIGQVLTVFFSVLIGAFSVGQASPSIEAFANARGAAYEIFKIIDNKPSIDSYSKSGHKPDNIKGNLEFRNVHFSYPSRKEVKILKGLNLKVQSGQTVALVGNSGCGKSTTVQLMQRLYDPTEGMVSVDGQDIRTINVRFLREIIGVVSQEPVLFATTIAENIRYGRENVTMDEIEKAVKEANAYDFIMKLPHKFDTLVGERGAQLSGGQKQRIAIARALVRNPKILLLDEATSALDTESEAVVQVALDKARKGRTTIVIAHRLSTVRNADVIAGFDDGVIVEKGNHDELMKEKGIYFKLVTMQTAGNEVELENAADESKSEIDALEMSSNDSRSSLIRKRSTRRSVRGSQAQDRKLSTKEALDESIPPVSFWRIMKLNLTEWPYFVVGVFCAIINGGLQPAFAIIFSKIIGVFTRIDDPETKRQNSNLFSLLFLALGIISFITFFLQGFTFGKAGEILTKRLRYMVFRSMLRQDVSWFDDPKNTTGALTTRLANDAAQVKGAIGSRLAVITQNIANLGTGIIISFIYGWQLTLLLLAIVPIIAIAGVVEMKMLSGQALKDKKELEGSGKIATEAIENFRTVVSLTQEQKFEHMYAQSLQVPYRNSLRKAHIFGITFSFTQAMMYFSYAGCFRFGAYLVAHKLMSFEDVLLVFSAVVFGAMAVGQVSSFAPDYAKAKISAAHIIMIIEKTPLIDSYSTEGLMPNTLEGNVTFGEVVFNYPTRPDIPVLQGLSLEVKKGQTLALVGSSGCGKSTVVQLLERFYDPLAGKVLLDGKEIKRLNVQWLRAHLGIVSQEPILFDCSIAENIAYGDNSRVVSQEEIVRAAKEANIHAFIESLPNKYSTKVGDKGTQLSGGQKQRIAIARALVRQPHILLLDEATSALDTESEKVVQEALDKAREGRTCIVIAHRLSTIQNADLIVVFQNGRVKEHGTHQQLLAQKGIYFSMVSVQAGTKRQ
Protocol: 3. Determination of Efflux Ratio Using Madin-Darby Canine Kidney Type II Cells
Bidirectional transport experiments were performed on Madin-Darby Canine Kidney Type II cells over-expressing multidrug resistance protein 1 (MDR1-MDCK) to evaluate the compounds as potential P-gp substrates.
Compounds were added at 1 μM in HBSS-pH 7.4 (hanks balanced salt solution) to either the apical or basolateral side of MDR1-MDCK cell monolayers grown on Millicell 96-Cell polycarbonate filters. Samples were collected from both apical and basolateral sides at time 0 and after 1 h incubation at 37 C, compounds concentrations were measured by HPLC/MS/MS and permeability coefficients were then determined in both transport directions. The efflux ratio was subsequently calculated from the permeability coefficient.

| Ki [1] [nM] | efflux ratio at 1 h, 1 μM [2] | SMILES |
| --- | --- | --- |
| < 1000 |  | CCCS(=O)(=O)NCc1ccc2c(c1)C(Cc1ccccc1)C(NC1(C#N)COC1)CC2 (centres unmarked) [Example 7, N-((8-Benzyl-7-(3-cyanooxetan-3-ylamino)-5,6,7,8-tetrahydronaphthalen-2-yl)methyl)propane-1-sulfonamide] |
| < 1000 |  | N#CC1(NC2CCc3ccc(CNS(=O)(=O)C4CCC4)cc3C2Cc2ccccc2)COC1 (centres unmarked) [Example 8, N-((8-Benzyl-7-(3-cyanooxetan-3-ylamino)-5,6,7,8-tetrahydronaphthalen-2-yl)methyl)cyclobutanesulfonamide] |
| < 100 | 3.5 | N#CC1(NC2CCc3ccc(CNS(=O)(=O)CC4CC4)cc3C2Cc2ccccc2)COC1 (centres unmarked) [Example 9, N-((8-Benzyl-7-(3-cyanooxetan-3-ylamino)-5,6,7,8-tetrahydronaphthalen-2-yl)methyl)-1-cyclopropylmethanesulfonamide] |
| < 1000 |  | Cn1cnc(S(=O)(=O)NCCOc2cc3c(cc2C#N)CCC(N2CC4CC4C2)C3Cc2ccccc2)c1 (centres unmarked) [Example 10, N-[2-({7-[3-Azabicyclo[3.1.0]hex-3-yl]-8-benzyl-3-cyano-5,6,7,8-tetrahydronaphthalen-2-yl}oxy)ethyl]-1-methyl-1H-imidazole-4-sulfonamide(2E)-but-2-enedioate] |

Further lines, the compound ahead of its results:

| SMILES | Ki [1] [nM] | efflux ratio at 1 h, 1 μM [2] |
| --- | --- | --- |
| Cn1cnc(S(=O)(=O)NCc2ccc3c(c2)C(Cc2ccccc2)C(N2CC4CC4C2)CC3)c1.O=C(O)/C=C/C(=O)O (stereo not drawn) [Example 1, cis-N-({7-[3-Azabicyclo[3.1.0]hex-3-yl]-8-benzyl-5,6,7,8-tetrahydronaphthalen-2-yl}methyl)-1-methyl-1H-imidazole-4-sulfonamide(2E)-but-2-enedioate] | < 10 | 3.2 |
| Cn1cnc(S(=O)(=O)NCCOc2ccc3c(c2)C(Cc2ccccc2)C(N2CC4CC4C2)CC3)c1 (centres unmarked) [Example 2, N-[2-({7-[3-Azabicyclo[3.1.0]hex-3-yl]-8-benzyl-5,6,7,8-tetrahydronaphthalen-2-yl}oxy)ethyl]-1-methyl-1H-imidazole-4-sulfonamide(2E)-but-2-enedioate] | < 10 |  |
| Cn1cc(S(=O)(=O)NCCOc2ccc3c(c2)C(Cc2ccccc2)C(N2CC4CC4C2)CC3)cn1 (centres unmarked) [Example 3, N-[2-({7-[3-Azabicyclo[3.1.0]hex-3-yl]-8-benzyl-5,6,7,8-tetrahydronaphthalen-2-yl}oxy)ethyl]-1-methyl-1H-pyrazole-4-sulfonamide(2E)-but-2-enedioate] | < 10 |  |
| Cn1cnc(S(=O)(=O)NCCOc2ccc3c(c2)C(Cc2ccccc2F)C(N2CC4CC4C2)CC3)c1 (centres unmarked) [Example 5, N-(2-{[7-[3-Azabicyclo[3.1.0]hex-3-yl]-8-(2-fluorobenzyl)-5,6,7,8-tetrahydronaphthalen-2-yl]oxy}ethyl)-1-methyl-1H-imidazole-4-sulfonamide] | < 1000 |  |
| CCS(=O)(=O)NCc1ccc2c(c1)C(Cc1ccccc1)C(NC1(C#N)COC1)CC2 (centres unmarked) [Example 6, N-((8-Benzyl-7-(3-cyanooxetan-3-ylamino)-5,6,7,8-tetrahydronaphthalen-2-yl)methyl)ethanesulfonamide] | < 1000 |  |
